Experimental data published in patent US12161752B2, “Compositions and methods for the treatment of anterior blepharitis and posterior blepharitis” (priority 2019, dated 2024).

Experiments:
[1] = Clinic based application of topical Ivermectin for the treatment of inflammatory blepharitis; type: in vivo
Experimental: In another embodiment, the pharmaceutical composition is administered periodically. In an embodiment, the pharmaceutical composition is applied daily for 3 days and the treatment is repeated for 3 days again after 2 weeks. In most cases this is sufficient for a significant therapeutic effect. The treatment using this frequency can be repeated again if the condition recurs but this is necessary only in a relatively small number of cases. The intermittent dosage of the Ivermectin provides the benefit of a lower amount of Ivermectin use and thereby lowers the possibility of adverse effects.
In another embodiment, a subject with anterior and posterior blepharitis is identified and the existing symptoms and signs noted. The pharmaceutical composition is applied by the practitioner using for example, slit lamp magnification to accurately identify the areas on the eyelid margin where the pharmaceutical composition is to be applied. A topical anaesthetic drop is applied in the lower conjunctival sac of the eye 5 to 10 minutes prior. Temporary anaesthetization will attenuate the lacrimal reflex thereby minimizing the production of tear fluid during the application process.
The pharmaceutical composition is applied as a film precisely along the length of the lid margin with the applicator just covering the openings of the Meibomian glands but taking care as to not further extend the composition into the mucosal surface. The pharmaceutical composition is extended proximally to cover the lash roots and the skin area in between. The lid is held reflected away from the eyeball until the pharmaceutical composition sets and dries in place. The pharmaceutical composition takes the form of an adhesive film or coating on the lid margin. This procedure is repeated for all the 4 eyelid margins. The administration of the pharmaceutical composition results in enhanced meibum production.
A clinic based application of topical Ivermectin for the treatment of inflammatory blepharitis has been successful; both for cases where Demodex species were not isolated which constituted the majority of cases of Blepharitis treated, and the smaller number of cases where Demodex species were isolated. Most of these were cases with longstanding disease which had been unresponsive to a wide range of currently accepted treatment modalities. More than 95% had full relief of symptoms and a remarkable reduction in signs of inflammation of the lid margins. 87% of the cases required only 1 treatment cycle for marked improvement or complete remission of symptoms.

[2] = oral, cited from earlier work

For “mixture containing 5-O-demethyl-22,23-dihydroavermectin A1a and 5-O-demethyl-25-de(1-methylpropyl)-25-(1-methylethyl)-22,23 dihydroavermectin A1a [Ivermectin]”, the “cases that required only 1 treatment cycle for marked improvement or complete remission of symptoms” value ([1]; topical application to lid margins) was 87%, the “cases with full relief of symptoms and a remarkable reduction in signs of inflammation of the lid margins” value ([1]; topical application to lid margins, cases with and without Demodex isolated, mostly longstanding disease unresponsive to accepted treatments) was “More than 95%” and the “Meibomian gland orifices and secretions after treatment” value ([1]; topical application, a significant number of cases) was “re-opening of previously closed Meibomian gland orifices”. The “overall outcome of treatment of inflammatory blepharitis” value ([1]; topical application, cases with and without Demodex species isolated) was “successful”, the “dry eye symptoms after treatment” value ([1]; topical application, majority of the cases where dry eye symptoms were present) was “remarkable improvement” and the “adverse effect at high doses” value ([2]; high doses) was “paralysis”. For the same substance, the safety profile [2] was “good safety profile”.
